In patent US5440012A, “Calcitonin and method for the preparation and use thereof” (Sumitomo Metal Industries, Ltd., priority 1991, dated 1995):
Positions of bridges follow the written chain, without caps; N, C: chain ends. Residues, ends and D or L forms follow the SMILES beside them.

Columns and labels:
[1] = test system: grown cartilage cell culture of rabbit costal cartilage; test: Alkaline phosphatase activity per protein in rabbit costal cartilage cell culture (chondrocyte differentiation); assay type: cell-based; details: 10 μl of 10^-12 mol/ml calcitonin solution added on fourth and sixth days, 9 days incubation; control about 88,150
Method: When their physiological activities on cartilage cells or chondrocytes were determined according to the technique of Bessey et al (J. Biol. Chem. 164: 321-329, 1964) and that of Lowry et al (J. Biol. Chem. 193: 265-275, 1951), a strong cell differentiation-promoting activity was noted. […]
After incubation for 9 days, the cell layer (1) was recovered and the alkaline phosphatase activity in each well was determined by the method of Bessey et al (J. Biol. Chem. 164: 321-329, 1946) using p-nitrophenylphosphoric acid as a substrate.
The amount of protein in each well was also determined by assaying the recovered cell layer (1) in accordance with the method of Lowry et al (J. Biol. Chem. 193: 265-275, 1951) using bovine serum albumin as a standard substance.
The value for alkaline phosphatase activity per unit weight of protein was calculated from the values for alkaline phosphatase activity and amount of protein determined as above. The calculated value of the control was about 88,150 nmol/30 min/mg-protein. […]

[2] = test system: concentration of calcium in the serum; test: Blood calcium-decreasing activity in rats (serum calcium, parallel line assay); assay type: in vivo, Male Wistar rats
Method: The physiological activities of the pure naturally-occurring stingray calcitonin extracted from the ultimobranchial gland of a stingray and those of synthetic stingray calcitonin obtained in the above-described manner were determined according to the technique of Homma et al (J. Biochem. 100: 459-467, 1986).
Male Wistar rats weighing 90-110 grams (10 animals in each group) which had fasted for 24 hours prior to the experiment were intravenously injected with a standard solution of salmon calcitonin or eel calcitonin or a solution of the synthetic stingray calcitonin (produced in Example 2) each dissolved in an aqueous 0.9% sodium chloride solution (pH 4.6) containing 0.1% bovine serum albumin at a dose of 1 pmol or 10 pmol per animal. Exactly one hour after the administration, a blood sample was collected from the artery of each test animal and the concentration of calcium in the serum was determined by atomic absorption spectroscopy. Based on the values for serum calcium concentration in rats of the groups in which one of the standard solutions was administered at a dose of 1 pmol or 10 pmol per animal and those in rats of the group in which the stingray calcitonin of the present invention was administered at the same dose, the relative titer of the stingray calcitonin was determined by the standard statistical procedures for parallel line assays. […]

Question: With `CC[C@H](C)[C@H](NC(=O)[C@H](CC(N)=O)NC(=O)[C@H](CCC(N)=O)NC(=O)[C@H](CC(C)C)NC(=O)[C@H](CCCCN)NC(=O)[C@H](Cc1c[nH]cn1)NC(=O)[C@H](CC(C)C)NC(=O)[C@H](CCC(N)=O)NC(=O)[C@H](CCC(N)=O)NC(=O)[C@H](CO)NC(=O)[C@H](CC(C)C)NC(=O)[C@H](CCCCN)NC(=O)CNC(=O)[C@@H](NC(=O)[C@@H](NC(=O)[C@@H]1CSSC[C@H](N)C(=O)N[C@@H]([C@@H](C)O)C(=O)N[C@@H](CO)C(=O)N[C@@H](CC(C)C)C(=O)N[C@@H](CO)C(=O)N[C@@H]([C@@H](C)O)C(=O)N1)C(C)C)C(C)C)C(=O)N[C@@H](CCC(N)=O)C(=O)N[C@@H](CCCNC(=N)N)C(=O)N[C@H](C(=O)N[C@@H](CC(=O)O)C(=O)N[C@H](C(=O)NCC(=O)N[C@@H](C)C(=O)N[C@@H](C)C(=O)N[C@H](C(=O)N1CCC[C@H]1C(N)=O)[C@@H](C)O)C(C)C)[C@@H](C)O` [calcitonin of the present invention] (H-CTSLSTCVVGKLSQQLHKLQNIQRTDVGAATP-NH2; disulfide 1-7) as the compound, how does the “alkaline phosphatase activity per unit weight of protein” value [1] read?
Answer: The value was “about 106,000 nmol/30 min/mg-protein”.

Question: What about the “titer (blood calcium-decreasing activity)” value ([2]; rats, intravenous, 1 pmol or 10 pmol per animal, serum calcium one hour after administration, salmon and eel calcitonin used as standard substances) of the same compound?
Answer: Its value is “about 3770 IU/mg”.

Question: What about the “blood calcium-decreasing activity (in words)” value ([2]; technique of Homma et al) of the same compound?
Answer: Its value is “strong blood calcium-decreasing activity”.
